From US20090221559A1 (priority 2005, published 2009)
Where two headings read alike, the source gives them in different places.

How the values were obtained:
[1] = tested on: HCV replicon RNA replication in Huh-7 luc/neo (Huh-Luc) cells; assay: HCV replicon assay (stable replicon cell reporter assay, luciferase read-out); format: cell-based, HCV type 1b
Procedure, shortened: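 Huh-7 cells stably carry a bicistronic HCV 1b NS3-NS5B subgenomic replicon with firefly luciferase and neo markers. Cells were plated with compound across a concentration range and incubated three days. Replication was measured as luciferase activity to give dose-response curves.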

[2] = biological target: T1, HCV NS5B polymerase (His-tagged, C-terminal 21 amino acid deleted NS5B, HC-J4) (Hepatitis C virus genotype 1b, UniProt O92972); assay: NS5b polymerase assay (biochemical RdRp assay, 3H-GTP incorporation, SPA beads); design: species or system HCV genotype 1b
T1 construct: The cDNA encoding NS5B amino acid 1-570 (HC-J4, genotype 1b); His tag (His6, from pET-21b) (C); made in house; host or cells: E. coli BL21 (DE3)
Procedure, shortened: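 His-tagged C-terminal-21-aa-deleted NS5B (genotype 1b, HC-J4) at 200 nM was preincubated 15 min at RT with compound on 5′-biotinylated oligo(rG13)/poly(rC) template/primer before NTPs. Reaction with 600 nM GTP plus 0.1 μCi 3H-GTP and 5 mM MgCl2 in Tris pH 7.5 ran 2 h at 25 °C. Stopped with EDTA/SPA beads for incorporation counting.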

[3] = Hepatitis C virus, Huh-7, 72 h, read-out: Replicon Assay EC50 (μM), Huh-Luc cells, incubation of three days, luciferase activity
[4] = NS5B Polymerase Assay IC50 (μM)
[5] = Hepatitis C virus, Huh-7, 72 h, read-out: Replicon Assay EC50, Huh-Luc cells, three days incubation, luciferase activity
[6] = NS5B Polymerase Assay IC50, 200 nM enzyme, 3H-GTP incorporation, 2 h at 25° C.
[7] = Huh-Luc cells, three days incubation, luciferase activity, read-out: Replicon Assay EC50
[8] = 200 nM enzyme, 3H-GTP incorporation, 2 h at 25° C., read-out: NS5B Polymerase Assay IC50

T1 sequence (O92972 2417-3000, looked up, stated change not applied): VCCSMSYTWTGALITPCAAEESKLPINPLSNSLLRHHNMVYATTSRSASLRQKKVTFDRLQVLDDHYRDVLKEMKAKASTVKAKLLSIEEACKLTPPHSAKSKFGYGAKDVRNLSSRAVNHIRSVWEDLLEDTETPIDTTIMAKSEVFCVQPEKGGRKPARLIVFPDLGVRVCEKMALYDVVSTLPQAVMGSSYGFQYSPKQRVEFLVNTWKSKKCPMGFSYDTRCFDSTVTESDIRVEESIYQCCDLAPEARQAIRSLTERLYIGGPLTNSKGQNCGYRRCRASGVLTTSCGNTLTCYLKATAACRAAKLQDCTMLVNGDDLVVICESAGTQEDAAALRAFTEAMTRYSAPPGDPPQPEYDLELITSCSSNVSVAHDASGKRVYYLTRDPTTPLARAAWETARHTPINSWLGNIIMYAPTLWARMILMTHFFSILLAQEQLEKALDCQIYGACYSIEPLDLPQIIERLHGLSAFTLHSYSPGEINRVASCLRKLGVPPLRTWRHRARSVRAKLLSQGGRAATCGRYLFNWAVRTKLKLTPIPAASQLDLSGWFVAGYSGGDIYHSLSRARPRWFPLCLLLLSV

| SMILES | EC50 [1, 3] | IC50 [2, 4] | EC50 [1, 5] | IC50 [2, 6] | further results |
| --- | --- | --- | --- | --- | --- |
| Cc1cc2c(cc1C)NC(c1c(F)cccc1F)C1=C(CC(C)(C)CC1=O)N2 (stereo not shown) [compound 454] | 3.44 µM | > 42.7 µM |  |  |  |
| CC1(C)CC(=O)C2=C(C1)Nc1ccccc1N(C(=O)C(F)(F)F)C2c1ccccc1Cl (stereo not shown) [compound 87] |  |  | > 32 µM | > 42.7 µM |  |
| CC1(C)CC(=O)C2=C(C1)Nc1ccccc1N(C(=O)Cc1ccccc1)C2c1ccc2c(c1)OCO2 (stereo not shown) [compound 275] |  |  | 10.1 µM | > 42.7 µM |  |
| CN(C)c1ccc(C2C3=C(CC(C)(C)CC3=O)Nc3ccccc3N2C(=O)C(F)(F)F)cc1 (stereo not shown) [compound 108] |  |  | > 32 µM | > 42.7 µM |  |
| CC(=O)N1c2ccccc2NC2=C(C(=O)CC(C)(C)C2)C1c1ccccn1 (stereo not shown) [compound 281] |  |  | > 32 µM | > 42.7 µM |  |
| COc1ccc(C2CC(=O)C3=C(C2)Nc2ccccc2NC3c2ccccc2OC(C)C)cc1OC (stereo not shown) [compound 370] | 3.43 µM | > 42.7 µM |  |  |  |
| COc1ccc(C2C3=C(CC(c4cccc([N+](=O)[O-])c4)CC3=O)Nc3ccccc3N2C(=O)c2ccccc2)cc1 (stereo not shown) [compound 221] |  |  |  |  | EC50 [1, 7]: 23.2 µM; IC50 [2, 8]: > 42.7 µM |
| CC1(C)CC(=O)C2=C(C1)Nc1ccccc1NC2c1cc(Cl)ccc1Cl (stereo not shown) [compound 438, 11-[2,5-dichlorophenyl]-3,3-dimethyl-2,3,4,5,10,11-hexahydro-1H-dibenzo[b,e][1,4]diazepin-1-one] | 15.4 µM | > 133 µM |  |  |  |
| COc1ccc(C2CC(=O)C3=C(C2)Nc2ccccc2NC3c2cc(OC)c(OC)cc2OC)cc1OC (stereo not shown) [compound 403] | 7.12 µM | > 42.7 µM |  |  |  |
| CC1(C)CC(=O)C2=C(C1)Nc1ccccc1N(C(=O)c1ccc(F)cc1)C2c1ccc(Br)cc1 (stereo not shown) [compound 113] |  |  | > 32 µM | > 42.7 µM |  |
| CC1(C)CC(=O)C2=C(C1)Nc1ccccc1N(C(=O)C(F)(F)F)C2c1ccc(Cl)cc1 (stereo not shown) [compound 56] |  |  | 25.3 µM | > 42.7 µM |  |
| CC(=O)N1c2ccccc2NC2=C(C(=O)CC(C)(C)C2)C1c1cccc(OCc2ccccc2)c1 (stereo not shown) [compound 136, 10-acetyl-11-(3-benzyloxyphenyl)-3,3-dimethyl-2,3,4,5,10,11-hexahydro-1H-dibenzo[b,e][1,4]diazepin-1-one] |  |  | 9.51 µM | > 133 µM |  |
| CC(=O)N1c2ccccc2NC2=C(C(=O)CC(C)(C)C2)[C@H]1c1ccc(OCc2ccccc2)cc1 (single isomer, unassigned) [compound 301] |  |  | 15.3 µM | 1.52 µM |  |
| COc1ccc(C2Nc3ccccc3NC3=C2C(=O)CC(C)(C)C3)cc1COc1ccc(F)cc1F (stereo not shown) [compound 430] | 10.8 µM | > 33.3 µM |  |  |  |
| CCCOc1cccc(C2C3=C(CC(C)(C)CC3=O)Nc3ccccc3N2C(C)=O)c1 (stereo not shown) [compound 123] |  |  | > 32 µM | > 42.7 µM |  |
| COc1ccc(C2CC(=O)C3=C(C2)Nc2ccccc2NC3c2cc(OC)ccc2OC)cc1 (stereo not shown) [compound 336] | 13.8 µM | > 42.7 µM |  |  |  |
| O=C1CC(c2ccccc2)CC2=C1C(c1ccc(Cl)cc1)Nc1ccccc1N2 (stereo not shown) [compound 325] | 16.3 µM | > 42.6 µM |  |  |  |
| CCCCOc1ccc(C2C3=C(CC(C)(C)CC3=O)Nc3ccccc3N2C(=O)C(F)(F)F)cc1 (stereo not shown) [compound 115] |  |  | 14.4 µM | > 42.7 µM |  |
| O=C1CC(c2ccccc2)CC2=C1C(c1ccccc1[N+](=O)[O-])Nc1ccccc1N2 (stereo not shown) [compound 396] | 11.3 µM | > 42.7 µM |  |  |  |
| CC1(C)CC(=O)C2=C(C1)Nc1cc(F)c(F)cc1NC2c1ccc(Cl)cc1Cl (stereo not shown) [compound 466, 7,8-difluoro-11-(2,4-dichlorophenyl)-3,3-dimethyl-2,3,4,5,10,11-hexahydro-1H-dibenzo[b,e][1,4]diazepin-1-one] | 6.81 µM | 68.1 µM |  |  |  |
| CC1(C)CC(=O)C2=C(C1)Nc1ccccc1NC2c1cc2c(cc1[N+](=O)[O-])OCO2 (stereo not shown) [compound 505] | 13.5 µM | > 42.7 µM |  |  |  |
| CC(=O)N1c2ccccc2NC2=C(C(=O)CC(c3ccccc3OCc3ccccc3)C2)C1c1ccc(Cl)cc1Cl (single isomer, unassigned) [compound 186, 10-Acetyl-3-(2-benzyloxyphenyl)-11-(2,4-dichlorophenyl)-2,3,4,5,10,11-hexahydro-dibenzo[b,e][1,4]diazepin-1-one] |  |  | 2.03 µM | 40.9 µM |  |
| CCC(=O)N1c2ccccc2NC2=C(C(=O)CC(c3ccc(OC)c(OC)c3)C2)C1c1cccc(Cl)c1 (mixture of isomers) [compound 193] |  |  |  |  | EC50 [1, 7]: 5.92 µM; IC50 [2, 8]: > 33.3 µM |
| CC(=O)N1c2ccccc2NC2=C(C(=O)CC(C)(C)C2)C1c1ccccc1OCc1ccccc1 (stereo not shown) [compound 44] |  |  |  | > 42.7 µM | EC50 ([1]; read-out: Replicon Assay EC50, Huh-Luc cells, three days incubation, luciferase activity): 9.54 µM |

| SMILES | EC50 [1, 3] | IC50 [2, 4] | EC50 [1, 5] | IC50 [2, 6] | further results |
| --- | --- | --- | --- | --- | --- |
| O=C1CC(c2ccc(Cl)cc2)CC2=C1C(c1ccc(C(F)(F)F)cc1)Nc1ccccc1N2 (stereo not shown) [compound 377] | 4.46 µM | > 42.7 µM |  |  |  |
| CC(=O)N1c2ccccc2NC2=C(C(=O)CC(C)(C)C2)C1c1ccc2c(c1)OCO2 (stereo not shown) [compound 284] |  |  | 30.9 µM | > 42.7 µM |  |
| CCCCCC(=O)N1c2ccccc2NC2=C(C(=O)CC(c3cccc([N+](=O)[O-])c3)C2)C1c1ccc(OC)cc1 (stereo not shown) [compound 168] |  |  |  |  | EC50 [1, 7]: 3.61 µM; IC50 [2, 8]: > 42.7 µM |
| Cc1cc2c(cc1C)NC(c1ccc(Cl)c([N+](=O)[O-])c1)C1=C(CC(C)(C)CC1=O)N2 (stereo not shown) [compound 452] | 19.7 µM | > 42.7 µM |  |  |  |
| CCC(=O)N1c2ccccc2NC2=C(C(=O)CC(C)(C)C2)C1c1ccc(Cl)cc1 (stereo not shown) [compound 54] |  |  | 22.3 µM | > 42.7 µM |  |
| CC1(C)CC(=O)C2=C(C1)Nc1ccccc1NC2c1ccc(OCc2ccccc2)c(Cl)c1 (stereo not shown) [compound 439, 11-[4-benzyloxy-3-chlorophenyl]-3,3-dimethyl-2,3,4,5,10,11-hexahydro-1H-dibenzo[b,e][1,4]diazepin-1-one] | 4.33 µM | 3.63 µM |  |  |  |
| CCOc1cc(C2Nc3ccccc3NC3=C2C(=O)CC(c2ccc(OC)cc2)C3)cc(Br)c1O (stereo not shown) [compound 378] | 5.94 µM | > 42.7 µM |  |  |  |
| CCOc1ccccc1C1CC(=O)C2=C(C1)Nc1ccccc1N(C(=O)C(F)(F)F)C2c1ccc(OC)cc1 (stereo not shown) [compound 173] |  |  |  |  | EC50 [1, 7]: 0.208 µM; IC50 [2, 8]: > 42.7 µM |
| CCCCOc1ccc(C2C3=C(CC(C)(C)CC3=O)Nc3ccccc3N2C(C)=O)cc1 (stereo not shown) [compound 127] |  |  | 11.5 µM | > 42.7 µM |  |
| CCC(=O)N1c2ccccc2NC2=C(C(=O)CC(C)(C)C2)C1c1ccc(C(F)(F)F)cc1 (stereo not shown) [compound 55] |  |  | > 32 µM | 33.3 µM |  |
| COc1ccc(C2C3=C(CC(c4ccco4)CC3=O)Nc3ccccc3N2C(C)=O)cc1OC (stereo not shown) [compound 293] |  |  | > 32 µM | > 42.7 µM |  |
| CCCCCC(=O)N1c2ccccc2NC2=C(C(=O)CC(c3ccc(OC)c(OC)c3)C2)C1c1cccc([N+](=O)[O-])c1 (mixture of isomers) [compound 181] |  |  |  |  | EC50 [1, 7]: 2.41 µM; IC50 [2, 8]: > 33.3 µM |
| CC(=O)N1c2ccccc2NC2=C(C(=O)CC(C)(C)C2)C1c1cc(Cl)ccc1Cl (stereo not shown) [compound 138, 10-acetyl-11-[2,5-dichlorophenyl]-3,3-dimethyl-2,3,4,5,10,11-hexahydro-1H-dibenzo[b,e][1,4]diazepin-1-one] |  |  | 26.7 µM | > 133 µM |  |
| CCN(CC)c1ccc(C2C3=C(CC(C)(C)CC3=O)Nc3ccccc3N2C(=O)C(F)(F)F)cc1 (stereo not shown) [compound 109] |  |  | > 32 µM | > 42.7 µM |  |
| O=C1CCCC2=C1C(c1ccc(Cl)cc1Cl)Nc1ccccc1N2 (stereo not shown) [compound 421] | 51.9 µM | > 133 µM |  |  |  |
| COc1ccc(C2CC(=O)C3=C(C2)Nc2ccccc2NC3c2cc(Br)c(OC)c(OC)c2)cc1 (stereo not shown) [compound 402] | 8.59 µM | > 42.7 µM |  |  |  |
| CCCCCC(=O)N1c2ccccc2NC2=C(C(=O)CC(c3ccco3)C2)C1c1ccc(Cl)cc1 (stereo not shown) [compound 289] |  |  | 15.4 µM | > 33.3 µM |  |
| CC(=O)N1c2ccccc2NC2=C(C(=O)CC(C)(C)C2)C1c1ccc(OCc2ccncc2)cc1 (stereo not shown) [compound 145, 10-acetyl-3,3-dimethyl-11-[4-(4-pyridylmethoxy)phenyl]-2,3,4,5,10,11-hexahydro-1H-dibenzo[b,e][1,4]diazepin-1-one] |  |  | 5.92 µM | 23.1 µM |  |
| CCC(=O)N1c2ccccc2NC2=C(C(=O)CC(c3ccc(C)cc3)C2)C1c1ccc(C)cc1 (stereo not shown) [compound 201] |  |  | 9.62 µM | > 33.3 µM |  |
| CCCN1c2ccccc2NC2=C(C(=O)CC(C)(C)C2)C1c1ccc(Cl)cc1Cl (stereo not shown) [compound 509, 11-(2,4-Dichlorophenyl)-2,3,4,5,10,11-hexahydro-3,3-dimethyl-10-propyl-1H-dibenzo[b,e][1,4]diazepin-1-one] | 0.894 µM | > 42.7 µM |  |  |  |
| CC1(C)CC(=O)C2=C(C1)Nc1ccccc1N(C(=O)Cc1ccccc1)C2c1cccs1 (stereo not shown) [compound 240] |  |  | 7.73 µM | > 42.7 µM |  |
| CCC(=O)N1c2ccccc2NC2=C(C(=O)CC(C)(C)C2)C1c1cc(OC)ccc1OC (stereo not shown) [compound 60] |  |  | 17.9 µM | > 42.7 µM |  |
| COc1ccc(C2CC(=O)C3=C(C2)Nc2ccccc2NC3c2ccc(C)cc2)cc1 (stereo not shown) [compound 384] | 15.9 µM | 4.58 µM |  |  |  |
